Data on eight molecules can be found in PMC9703152 (Journal of hepatology, 2020).

A short description of data set [1]: Intracellular concentrations of phosphorylated forms in HepG2.2.15 cells. It counts as in vitro ADME, human.
Data set [2] relates to HBV. The settings on record: 90 mg/kg/day, 3-week administration, HBV-infected PXB-mice; cited from earlier work.
The test system of data set [3] is HBVWT^C2. As to the kind of experiment: Anti-HBV qPCR assay in HBV-exposed PXB-cells. It counts as cell-based, Hepatitis B virus. The settings on record: for IC50: Hepatitis B virus, read-out: IC50^qPCR_cell; for IC95^qPCR_sup / IC95^qPCR_cell: PXB-cells; for IC95^qPCR_sup: HBVWT^C2, HBV-DNA in culture medium blocked by 95%; for IC95^qPCR_cell: HBVWT^C2, intracellular HBV-DNA blocked by 95%.

Data set [4] has as its system HBVWT^D1. As to the kind of experiment: microbe, parasite or virus in culture. It is filed as cell-based, Hepatitis B virus.
In data set [5] the test system is HBVWT^C2. As to the kind of experiment: Antiviral effect in chronically HBVWT^C2-infected PXB-mice. It is filed as in vivo. To be noted: for reduction of serum HBVWT^C2-DNA copies: day 21.
Data set [6] concerns HBVWT^D1. The settings on record: high concentrations (100 and 1,000 nM), HepG2.2.15 cells.
For data set [7], the system named is mtDNA production in human PBMCs.
For data set [8], the system named is mtDNA production in PXB-cells.
Data set [9] can be described thus: Cytotoxicity, MTT assay, MT-2 cells. It is filed as cell-based. The settings on record: human. (In general: Tetrazolium dyes change colour on reduction, which living cells bring about.)
Data set [10] in a line: Cytotoxicity, MTT assay, HepG2 cells. It counts as cell-based. The settings on record: human.
A short description of data set [11]: Cytotoxicity, MTT assay, Huh7 cells. It counts as cell-based. The settings on record: human.
Data set [12] is described as follows: Cytotoxicity, MTT assay, PXB-cells. It counts as cell-based. To be noted: human.
Data set [13] is described as follows: Intracellular concentration of compound in HepG2.2.15 cells. It is filed as in vitro ADME, human. The settings on record: 100 µM, 6 hours incubation.
Data set [14] in a line: Acid resistance: anti-HBV activity after pH 2 exposure. It is filed as physicochemical. The settings on record: pH 2, 5 and 60 minutes at 37 °C, then tested in HepG2.2.15 cells.
Another data set concerns HIV-1LAI. As to the kind of experiment: Anti-HIV assay. It counts as cell-based. The settings on record: Human immunodeficiency virus 1, read-out: IC50^MTT.
In data set [15] the test system is HBV. As to the kind of experiment: Combination of E-CFCP with GLS4, HBV-DNA production by HepG2.2.15 cells. It is filed as cell-based, Hepatitis B virus.
A short description of data set [16]: Body weights and serum human albumin in treated PXB-mice. It is filed as in vivo.
In data set [17] the test system is MOT-4 cells and human primary peripheral blood mononuclear cells. As to the kind of experiment: Cell proliferation assays in MOT-4 cells and human PBMCs. It counts as cell-based.
Data set [18] deals with HBVWT^D1. As to the kind of experiment: microbe, parasite or virus in culture. The settings on record: Hepatitis B virus, HepG2.2.15, read-out: IC50^qPCR_cell. (In general: Real-time PCR tracks product formation cycle by cycle.)
The nature of data set [19]: Cytotoxicity, LDH release assay, primary hepatocytes. To be noted: human. Background: LDH in the medium is a marker of cell lysis.
Data set [20] is described as follows: Cytotoxicity, Neutral Red staining assay, primary hepatocytes. The settings on record: human.
Where [21] appears, read: 10 µM, 6 days of culture without compound.

Where a name gives a salt, the structure may show the parent alone. Read-outs that look alike come from different tables or passages of the source.

For `C[C@@H](Cn1cnc2c(N)ncnc21)OCP(=O)(O)OP(=O)(O)OP(=O)(O)O` [TFV-DP], the “intracellular phosphorylated form (in words)” value in [1] was “not detected by day 3 and beyond”.

Turning to `CC(C)OC(=O)OCOP(=O)(CO[C@H](C)Cn1cnc2c(N)ncnc21)OCOC(=O)OC(C)C` [TDF, tenofovir disoproxil fumarate], the viral load reduction entry in the data set with HBV [2] is on record as “approximately 1.5 logs”.

On to `C=C1[C@H](CO)[C@@H](O)C[C@@H]1n1cnc2c(=O)[nH]c(N)nc21` [ETV, entecavir], for which, in the data set with HBVWT^C2 [3], the half-maximal inhibitory concentration (IC50) stood at 0.13 nM, the “IC95^qPCR_sup” value came out at 0.079 µM and the “IC95^qPCR_cell” value turned out to be 0.859 µM. The molecule also came in with an HBV-DNA synthesis blockade in the data set on HBVWT^D1 [4] (setting [21]) of under 80%. Besides, the “reduction of serum HBVWT^C2-DNA copy numbers” value with HBVWT^C2 [5] (0.02 mg/kg/day, two weeks, at conclusion of administration (day 14)) was 2.0±0.07 log. The “inhibition of HBV-DNA production” value with HBVWT^D1 [6] is reported as under 100%. Besides, the Mitotox50 in data set [7] (human) was 40.4 µM. Also, in [8] (human), the Mitotox50 was 35.2 µM.

As to `Nc1ccn([C@H]2CC[C@@H](CO)O2)c(=O)n1` [zalcitabine/ddC, zalcitabine], in data set [7], the “inhibition of mtDNA production (in words)” value is given as “strongly blocked mtDNA production”.

For `C=C1C(n2cnc3c(=O)[nH]c(N)nc32)CC(O)C1(C#N)CO` (stereo not drawn) [CMCdG], in data set [7] (human PBMCs and PXB-cells), the “inhibition of mtDNA production (in words)” value is listed as “non-toxic”.

Take `N#C[C@]1(CO)/C(=C\F)[C@@H](n2cnc3c(=O)[nH]c(N)nc32)C[C@@H]1O` [E-CFCP]: the results for the half-inhibitory concentration (IC50) in the data set on HBVWT^C2 [3], with HIV-1LAI and in the data set with HBVWT^D1 [18] were 0.01 nM, 0.205 ± 0.0238 µM and 0.0018 µM, respectively. Further, the “IC95^qPCR_sup” value in the data set on HBVWT^C2 [3] was 0.0035 µM. Also, the “IC95^qPCR_cell” value in the data set on HBVWT^C2 [3] was found to be 0.339 µM. For the same molecule, the cytotoxic concentration (CC50) was 306 µM in data set [9] (MT-2 cells); 115 µM in data set [10] (HepG2 cells); over 500 µM in data set [11] (Huh7 cells); over 500 µM in data set [12] (PXB-cells); over 100 µM in data set [19] (primary hepatocytes); over 100 µM in [20] (primary hepatocytes). In addition, the HBV-DNA synthesis blockade with HBVWT^D1 [4] (setting [21]) is reported as 100%; in the data set with HBVWT^D1 [4] (10 µM, 16 days of culture without compound), over 80%. In the data set on HBVWT^D1 [4] (10 µM, exposed 11 days, 14 days of culture without compound), the “% inhibition of HBVWT^D1-DNA production” value was over 90%. Moreover, in the data set with HBVWT^D1 [4] (HepG2.2.15 cells), the “persistence of anti-HBV activity (>80% Inhibition) after compound removal” value is listed as about 16 days. Also, in data set [13], the intracellular concentration entry is recorded as “approximately 200 pmol/2×10^6 cells”. In data set [14], the “anti-HBV activity after pH 2 exposure” value is “comparable to pH 2-unexposed E-CFCP”. The “reduction of serum HBVWT^C2-DNA copies” value in the data set with HBVWT^C2 [5] (0.02 mg/kg/day for two weeks) turned out to be 2.2±0.06 log; with HBVWT^C2 [5] (0.2 mg/kg/day for two weeks), 2.6±0.1 log. The “persistence of reduction after administration cessation” value in the data set with HBVWT^C2 [5] (0.2 mg/kg/day) is reported as at least 3 weeks. Besides, the “persistence of reduction following treatment cessation” value in the data set on HBVWT^C2 [5] (PXB-mice, 0.02∼0.2 mg/kg/day) is reported as 1–3 weeks. Further, the “reduction of HBVWT^C2-viremia” value with HBVWT^C2 [5] (once-daily peroral, 2 weeks, 0.02∼0.2 mg/kg/day) is on record as 2–3 logs. Further, the “combination effect with GLS4 (Chou-Talalay Method)” value in the data set with HBV [15] (1 and 10 nM E-CFCP with GLS4 at the same concentration) was “synergism was observed”; in the data set on HBV [15] (100 and 1,000 nM E-CFCP with GLS4 at the same concentration) it was “no synergism was detected”. Moreover, the “changes in body weights or serum human albumin levels” value in [16] (0.2 mg/kg/day for 2 weeks, HBVWT^C2-infected PXB-mice) was “No significant changes”. For the same molecule, in [16] (once daily 0.2 mg/kg/day, E-CFCP-receiving vs ETV-receiving mice), the “changes of body weights and human serum albumin over 8 weeks” value was “no significant changes”. Besides, in data set [17], the “cell proliferation safety profile (in words)” value is recorded as “highly favorable safety profiles”. Also, the “inhibition of HBV-DNA production” value in the data set with HBVWT^D1 [6] was determined as 100%. For the same molecule, the Mitotox50 in data set [7] (human PBMCs, mtDNA production) turned out to be 38.2 µM; in data set [8] (PXB-cells, mtDNA production) it was 29.6 µM.

Consider `N#C[C@]1(CO)/C(=C/F)[C@@H](n2cnc3c(=O)[nH]c(N)nc32)C[C@@H]1O` [Z-CFCP], for which the IC50 with HBVWT^D1 [18] is 0.414 µM.

As to `CC(C)OC(=O)[C@H](C)N[P@](=O)(CO[C@H](C)Cn1cnc2c(N)ncnc21)Oc1ccccc1` [TAF, tenofovir alafenamide, reference compound], the IC50 with HBVWT^C2 [3] came to 0.59 nM. In addition, in the data set on HBVWT^C2 [3], the “IC95^qPCR_sup” value came out at 0.09 µM. Also, in the data set with HBVWT^C2 [3], the “IC95^qPCR_cell” value turned out to be 0.513 µM. Besides, the 50% cytotoxic concentration (CC50) was 21 µM in data set [9]; 22 µM in [10]; 34 µM in data set [11]; 8.2 µM in data set [12]; 97 µM in data set [19]; 26 µM in data set [20]. Also, the inhibition at 1 µM in the data set on HBVWT^D1 [4] (Hepatitis B virus, HepG2.2.15, read-out: HBV-DNA production inhibition) stood at 90%. Moreover, in the data set on HBVWT^D1 [6], the “inhibition of HBV-DNA production” value is on record as under 100%.

The IC50 is the concentration at which inhibition is half-maximal. What is called CC50 is the concentration that lowers cell viability or growth by half. As a reminder, the inhibition is the drop in the measured response relative to a control, in per cent.
